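Growth conditions: 96-well plates. Treatment: test compound, 48 hours, 5 concentrations. Analysis: linear interpolation between bracketing concentrations; unreached endpoints set to highest concentration. TGI: total growth inhibition.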 Some results are limits rather than exact numbers.

The test system of the first test is XF 498 CNS. The test can be described thus: DTP human tumour cell line panel, 48 h.
The compound `C/C(CCOC1CCCCO1)=C(\C)[Si](C)(C)C` (stereo not given) showed a TGI above 100 µM.
Still for that read-out and setting: as for `COCCOCOc1ccc(OCc2ccccc2)cc1`, the figure is above 100 µM.
Turning to `C=C(C(=O)C(=O)Oc1ccc(Cl)cc1)C(=O)c1ccc(C)cc1`, the TGI is above 100 µM.

In a further test the test system is HOP-18 NSCLC. The test can be described thus: DTP human tumour cell line panel, 48 h.
`C#CCCCCC#Cc1ccccc1C(=O)OC` came in with a TGI above 100 µM.
On to `COCCOCOc1ccc(OCc2ccccc2)cc1`, for which the TGI is above 100 µM.
On the same count and under the same terms, the figure for `C=C(C(=O)C(=O)Oc1ccc(Cl)cc1)C(=O)c1ccc(C)cc1` is above 100 µM.

The subject of another test is M19-MEL melanoma. The test can be described thus: DTP human tumour cell line panel, 48 h.
The compound `C/C(CCOC1CCCCO1)=C(\C)[Si](C)(C)C` (stereo not given) registered a TGI above 100 µM.
Take `COCCOCOc1ccc(OCc2ccccc2)cc1`: the TGI was above 100 µM.
`C=C(C(=O)C(=O)Oc1ccc(Cl)cc1)C(=O)c1ccc(C)cc1`: the TGI was determined as 35.4 µM.

Another test has as its system SNB-75 CNS. The test can be described thus: DTP human tumour cell line panel, 48 h.
Turning to `COC(=O)C1C(C(=O)OC)N(Cc2ccccc2)C(=O)N1Cc1ccccc1` (stereo not given), the TGI was above 100 µM.
Same read-out and setting: as for `CCOC(=O)c1csc(NC(=O)CCN(CC)CC)n1`, the figure is 73.5 µM; as for `CCN1c2ccccc2-n2c(C)nnc2-c2c1n[nH]c2-c1ccccc1`, above 100 µM; as for `C[C@]12CC[C@@H]3c4ccc(O)cc4CC[C@H]3[C@@H]1C/C(=C\c1ccncc1)C2=O`, above 100 µM.
The compound `C=CCN1C(=O)/C(=C/c2ccccc2)N=C1SC1OC(COC(=O)c2ccccc2)C(OC(=O)c2ccccc2)C1OC(=O)c1ccccc1` (stereo not given) gave a TGI above 100 µM.
The same measure, in the same setting: as for `C#CCCCCC#Cc1ccccc1C(=O)OC`, the figure is 86.5 µM.
Still for that read-out and setting: as for `C/C(CCOC1CCCCO1)=C(\C)[Si](C)(C)C` (stereo not given), the figure is above 100 µM; as for `COCCOCOc1ccc(OCc2ccccc2)cc1`, above 41.1 µM; as for `C=C(C(=O)C(=O)Oc1ccc(Cl)cc1)C(=O)c1ccc(C)cc1`, above 100 µM.

A further test concerns OVCAR-3 ovarian. The test is described as follows: DTP human tumour cell line panel, 48 h.
Take `COC(=O)C1C(C(=O)OC)N(Cc2ccccc2)C(=O)N1Cc1ccccc1` (stereo not given): the TGI is above 100 µM.
Regarding `CCOC(=O)c1csc(NC(=O)CCN(CC)CC)n1`, the TGI turned out to be 69 µM.
`CCN1c2ccccc2-n2c(C)nnc2-c2c1n[nH]c2-c1ccccc1`: the TGI was above 100 µM.
Same read-out and setting: the figure for `C[C@]12CC[C@@H]3c4ccc(O)cc4CC[C@H]3[C@@H]1C/C(=C\c1ccncc1)C2=O` is 50.5 µM.
For `C=CCN1C(=O)/C(=C/c2ccccc2)N=C1SC1OC(COC(=O)c2ccccc2)C(OC(=O)c2ccccc2)C1OC(=O)c1ccccc1` (stereo not given), the TGI was above 100 µM.
Still for that read-out and setting: as for `C#CCCCCC#Cc1ccccc1C(=O)OC`, the figure is above 100 µM; as for `C/C(CCOC1CCCCO1)=C(\C)[Si](C)(C)C` (stereo not given), above 100 µM; as for `COCCOCOc1ccc(OCc2ccccc2)cc1`, above 100 µM.
The same measure, in the same setting: as for `C=C(C(=O)C(=O)Oc1ccc(Cl)cc1)C(=O)c1ccc(C)cc1`, the figure is above 100 µM.

For a further test, the system named is SNB-78 CNS. The test is described as follows: DTP human tumour cell line panel, 48 h.
For the compound `C/C(CCOC1CCCCO1)=C(\C)[Si](C)(C)C` (stereo not given), the TGI was above 100 µM.
Still for that read-out and setting: as for `COCCOCOc1ccc(OCc2ccccc2)cc1`, the figure is above 100 µM.
The same measure, in the same setting: as for `C=C(C(=O)C(=O)Oc1ccc(Cl)cc1)C(=O)c1ccc(C)cc1`, the figure is above 100 µM.

For another test, the system named is HOP-62 NSCLC. The test is described as follows: DTP human tumour cell line panel, 48 h.
The compound `COC(=O)C1C(C(=O)OC)N(Cc2ccccc2)C(=O)N1Cc1ccccc1` (stereo not given) displayed a TGI above 100 µM.
`CCOC(=O)c1csc(NC(=O)CCN(CC)CC)n1` displayed a TGI above 100 µM.
`C[C@]12CC[C@@H]3c4ccc(O)cc4CC[C@H]3[C@@H]1C/C(=C\c1ccncc1)C2=O` gave a TGI above 100 µM.
Same read-out and setting: as for `C=CCN1C(=O)/C(=C/c2ccccc2)N=C1SC1OC(COC(=O)c2ccccc2)C(OC(=O)c2ccccc2)C1OC(=O)c1ccccc1` (stereo not given), the figure is above 100 µM; as for `C#CCCCCC#Cc1ccccc1C(=O)OC`, above 100 µM; as for `COCCOCOc1ccc(OCc2ccccc2)cc1`, above 100 µM.
Still for that read-out and setting: the figure for `C=C(C(=O)C(=O)Oc1ccc(Cl)cc1)C(=O)c1ccc(C)cc1` is above 100 µM.

Another test deals with MDA-MB-435. The test can be described thus: DTP human tumour cell line panel, 48 h.
As for `COC(=O)C1C(C(=O)OC)N(Cc2ccccc2)C(=O)N1Cc1ccccc1` (stereo not given), the TGI was above 100 µM.
In turn, `CCOC(=O)c1csc(NC(=O)CCN(CC)CC)n1` displayed a TGI above 100 µM.
The same measure, in the same setting: the figure for `CCN1c2ccccc2-n2c(C)nnc2-c2c1n[nH]c2-c1ccccc1` is 82.9 µM; for `C[C@]12CC[C@@H]3c4ccc(O)cc4CC[C@H]3[C@@H]1C/C(=C\c1ccncc1)C2=O` it is 74.9 µM.
The same measure, in the same setting: the figure for `C=CCN1C(=O)/C(=C/c2ccccc2)N=C1SC1OC(COC(=O)c2ccccc2)C(OC(=O)c2ccccc2)C1OC(=O)c1ccccc1` (stereo not given) is above 100 µM.

Another test relates to HS 578T breast. The test can be described thus: DTP human tumour cell line panel, 48 h.
The compound `COC(=O)C1C(C(=O)OC)N(Cc2ccccc2)C(=O)N1Cc1ccccc1` (stereo not given) showed a TGI above 100 µM.
Compound `CCN1c2ccccc2-n2c(C)nnc2-c2c1n[nH]c2-c1ccccc1` showed a TGI above 100 µM.
The same measure, in the same setting: the figure for `C[C@]12CC[C@@H]3c4ccc(O)cc4CC[C@H]3[C@@H]1C/C(=C\c1ccncc1)C2=O` is 62.7 µM.

In another test the test system is SN12C renal. The test can be described thus: DTP human tumour cell line panel, 48 h.
Regarding `COC(=O)C1C(C(=O)OC)N(Cc2ccccc2)C(=O)N1Cc1ccccc1` (stereo not given), the TGI is above 100 µM.
`CCN1c2ccccc2-n2c(C)nnc2-c2c1n[nH]c2-c1ccccc1` registered a TGI of 81.6 µM.
In turn, `C#CCCCCC#Cc1ccccc1C(=O)OC` registered a TGI above 100 µM.
Same read-out and setting: the figure for `C/C(CCOC1CCCCO1)=C(\C)[Si](C)(C)C` (stereo not given) is above 100 µM; for `COCCOCOc1ccc(OCc2ccccc2)cc1` it is above 100 µM; for `C=C(C(=O)C(=O)Oc1ccc(Cl)cc1)C(=O)c1ccc(C)cc1` it is above 100 µM.

The test system of another test is DMS 114 small cell lung. The test is described as follows: DTP human tumour cell line panel, 48 h.
Regarding `C#CCCCCC#Cc1ccccc1C(=O)OC`, the TGI worked out at 60 µM.
The same measure, in the same setting: as for `C/C(CCOC1CCCCO1)=C(\C)[Si](C)(C)C` (stereo not given), the figure is above 100 µM.
The same measure, in the same setting: the figure for `COCCOCOc1ccc(OCc2ccccc2)cc1` is above 100 µM.
With `C=C(C(=O)C(=O)Oc1ccc(Cl)cc1)C(=O)c1ccc(C)cc1`, the TGI was above 100 µM.

In general, TGI refers to the concentration at which net growth stops. Read a low TGI as more potent growth arrest.

The values are drawn from PubChem BioAssay (NCI).
